# In patent US10588967B2, “Chimeric antigen receptor (CAR) signalling system” (UCL BUSINESS PLC, priority 2014, dated 2020):
# Entries after “also recorded” stand apart in the source; their conditions may differ.
# Key:
# [1] = system: T-cells transduced with inducible CAR with modified FKBP12 domains; assay: AP1903-inducible CD19 CAR: signalling of transduced T-cells challenged with CD19 negative or positive targets; format: cell-based
# Source text: FIG. 11—AP1903 homodimerizer inducible CAR. (a) AP1903 homodimerizer inducible CAR was constructed by using modified FKBP12 domains to constitute the heterodimerization motifs for both the antigen recognition component and the signalling component. The antigen recognition component recognizes CD19. (b) T-cells expressing this CAR along with non-transduced T-cells were stained with anti-Fc which recognizes the CAR spacer. The transduced T-cells expressed the CAR well. (c) Transduced T-cells were next challenged with increasing concentration of CID dimerizer AP1903 and challenged with either CD19 negative or CD19 positive target cells.
# AP1903 is a synthetic chemical inducer of dimerization which binds to two mutated FKB12 domains (Clackson et al (1998). Proc. Natl. Acad. Sci. U.S.A 95, 10437-10442). An inducible CAR was developed based on this system, using the modified FKBP12 domains to constitute the heterodimerization domain of both the antigen recognition component and signalling component in the framework as described in Example 1 with the antigen recognition domain and the signalling domain co-expressed with a FMD-2A like sequence (FIG. 11a and SEQ ID No. 24). The FKBP12 domains were codon-wobbled to prevent homologous recombination. T-cells were transduced with this construct and challenged with target cells which were CD19 negative or positive.
# [2] = target: FKBP-like binding domains with a F36V mutation (Homo sapiens, UniProt P62942, F37V); settings: cells engineered to express FKBP-like binding domain fusion proteins; cited from earlier work
# [3] = system: T-cells transduced with split CD19 CAR with EcR and RXR heterodimerization motifs; assay: RSL1-inducible CD19 CAR: IL-2 release of transduced T-cells challenged with CD19 negative or positive targets; format: cell-based; settings: CD19 negative or CD19 positive target cells; increasing concentration of RSL1
# Source text: FIG. 10—RSL1 inducible CAR (a) an RSL1 inducible CAR was constructed by using retinoic acid receptor domains and ecodysone receptor domains to constitute the heterodimerization motifs for the antigen recognition component and the signalling component respectively. The antigen recognition component recognizes CD19. (b) T-cells expressing this CAR along with non-transduced T-cells were stained with anti-Fc which recognizes the CAR spacer. The transduced T-cells expressed the CAR well. (c) Transduced T-cells were next challenged with increasing concentration of RSL1 and challenged with either CD19 negative or CD19 positive target cells.
# Signaling through the signaling component may be determined by a variety of methods known in the art. […] Functional readouts, such as clonal expansion of T cells, upregulation of activation markers on the cell surface, differentiation into effector cells and induction of cytotoxicity or cytokine secretion may also be utilised. As an illustration, in the present examples the inventors determined levels of interleukin-2 (IL-2) produced by T-cells expressing a receptor component and signalling component of the CAR signalling system according to the present invention upon binding of antigen to the receptor component in the presence of varying concentrations of CID. […]
# FKBP-like binding domains with a F36V mutation, sequence (P62942 2-108 F37V): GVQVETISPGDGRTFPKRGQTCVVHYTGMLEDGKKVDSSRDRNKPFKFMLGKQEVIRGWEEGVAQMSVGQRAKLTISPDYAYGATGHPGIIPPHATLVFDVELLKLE
SMILES,"Response / signalling of AP1903-inducible CAR T-cells ([1]; CD19 negative or CD19 positive target cells, increasing concentration of AP1903)","Signalling of AP1903-inducible CAR T-cells at very high dimerizer concentration ([1]; very high concentration of dimerizer, CD19 positive targets)",Selectivity of dimerization: FKBP-like (F36V) domains versus endogenous FKBP [2],IL-2 release / signalling of RSL1-inducible CAR T-cells [3]
CC[C@H](C(=O)N1CCCC[C@H]1C(=O)O[C@H](CCc1ccc(OC)c(OC)c1)c1cccc(OCC(=O)NCCNC(=O)COc2cccc([C@@H](CCc3ccc(OC)c(OC)c3)OC(=O)[C@@H]3CCCCN3C(=O)[C@@H](CC)c3cc(OC)c(OC)c(OC)c3)c2)c1)c1cc(OC)c(OC)c(OC)c1 [AP1903],responded only to CD19 positive targets in the presence of AP1903; also recorded: signal only in the presence of CID,signalling was inhibited; also recorded: signalling is reduced,no interactions involving endogenous FKBP,–
"CCc1c(OC)cccc1C(=O)NN(C(=O)c1cc(C)cc(C)c1)C(C)(C)C [RSL1, N-(2-ethyl-3-methoxybenzoyl)-N′-(3,5-dimethylbenzoyl)-N′-tert-butylhydrazine]",–,–,–,Only CAR T-cells challenged with SupT1 targets in the presence of RSL1 released IL-2; also recorded: signal only in the presence of RSL1
